Where two headings read alike, the source gives them in different places.
Legend:
AbnU = biological target: T1, AbnU (Parafrankia colletiae, UniProt A0A1S1R073); test: tryptophan fluorescence quenching (W114); format: binding
T1 construct: gene CC117_14200; N-terminal poly-His tag, pET28a(+), codon-optimised synthetic gene, E. coli; dimer

PyrI4 = biological target: T2, PyrI4 (Streptomyces rugosporus, UniProt K7QVW7, E65A); test: LC-SRM of product 3a; format: biochemical; settings: co-substrate 2
T2 construct: full length, N-terminal poly-His tag, pET28a(+), codon-optimised synthetic gene, E. coli
T2 sequence (K7QVW7 whole entry E65A): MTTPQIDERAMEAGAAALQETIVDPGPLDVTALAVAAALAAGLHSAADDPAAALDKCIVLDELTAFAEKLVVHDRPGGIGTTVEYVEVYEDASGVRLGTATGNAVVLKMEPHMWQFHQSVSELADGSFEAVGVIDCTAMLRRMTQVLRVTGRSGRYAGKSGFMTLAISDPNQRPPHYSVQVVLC

T1 sequence (A0A1S1R073 entry or part of it): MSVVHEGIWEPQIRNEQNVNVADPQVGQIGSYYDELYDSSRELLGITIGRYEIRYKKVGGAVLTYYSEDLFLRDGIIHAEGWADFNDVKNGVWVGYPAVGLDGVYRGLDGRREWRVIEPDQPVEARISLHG

Row | Structure (SMILES) | Kd (AbnU; read-out: KD) [µM] | LC-SRM of product 3a (PyrI4) | Kd (AbnU) [µM]
1 | COC(=O)c1ccc(COC(=O)NC2C=CCCC2C(=O)N(C)C)cc1 (mixture of isomers) [3a] | 1010 ± 205 | – | –
2 | C=C/C=C/NC(=O)OCc1ccc(C(=O)OC)cc1 [1a, diene 1a] | 729 ± 117 | Stereoselectivity is further compromised with E65A mutant | –
3 | C=CC(=O)N(C)C [compound 2, N,N-dimethylacrylamide] | – | – | 6320 ± 280
